# Measured values reported in PubChem BioAssay (NCI).
#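 The compound was tested at five concentrations on cells cultured in 96-well plates, with a 48-hour exposure period. At the GI50, growth is halved. The concentration for full growth arrest is given as TGI.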
# Tests used:
# Assay in all cases: DTP human tumour cell line panel, 48 h
# 786-0 renal = test system: 786-0 renal
# A498 renal = test system: A498 renal
# A549 NSCLC = test system: A549 NSCLC
# ACHN renal = test system: ACHN renal
# BT-549 breast = test system: BT-549 breast
# CAKI-1 renal = test system: CAKI-1 renal
# CCRF-CEM leukemia = test system: CCRF-CEM leukemia
# COLO 205 colon = test system: COLO 205 colon
# DU-145 prostate = test system: DU-145 prostate
# EKVX NSCLC = test system: EKVX NSCLC
# HCC-2998 colon = test system: HCC-2998 colon
# HCT-116 colon = test system: HCT-116 colon
# HCT-15 colon = test system: HCT-15 colon
# HL-60(TB) leukemia = test system: HL-60(TB) leukemia
# HOP-62 NSCLC = test system: HOP-62 NSCLC
# HOP-92 NSCLC = test system: HOP-92 NSCLC
# HS 578T breast = test system: HS 578T breast
# HT29 colon = test system: HT29 colon
# IGROV1 ovarian = test system: IGROV1 ovarian
# K-562 leukemia = test system: K-562 leukemia
# KM12 colon = test system: KM12 colon
# LOX IMVI melanoma = test system: LOX IMVI melanoma
# M14 melanoma = test system: M14 melanoma
# MALME-3M melanoma = test system: MALME-3M melanoma
# MDA-MB-231 breast = test system: MDA-MB-231 breast
# MDA-MB-435 = test system: MDA-MB-435
# MOLT-4 leukemia = test system: MOLT-4 leukemia
# NCI-H226 lung = test system: NCI-H226 lung
# NCI-H23 lung = test system: NCI-H23 lung
# NCI-H460 lung = test system: NCI-H460 lung
# NCI-H522 lung = test system: NCI-H522 lung
# NCI/ADR-RES ovarian = test system: NCI/ADR-RES ovarian
# OVCAR-3 ovarian = test system: OVCAR-3 ovarian
# OVCAR-4 ovarian = test system: OVCAR-4 ovarian
# OVCAR-5 ovarian = test system: OVCAR-5 ovarian
# OVCAR-8 ovarian = test system: OVCAR-8 ovarian
# PC-3 prostate = test system: PC-3 prostate
# RPMI-8226 leukemia = test system: RPMI-8226 leukemia
# RXF 393 renal = test system: RXF 393 renal
# SF-268 CNS = test system: SF-268 CNS
# SF-295 CNS = test system: SF-295 CNS
# SF-539 CNS = test system: SF-539 CNS
# SK-MEL-2 melanoma = test system: SK-MEL-2 melanoma
# SK-MEL-28 melanoma = test system: SK-MEL-28 melanoma
# SK-MEL-5 melanoma = test system: SK-MEL-5 melanoma
# SK-OV-3 ovarian = test system: SK-OV-3 ovarian
# SN12C renal = test system: SN12C renal
# SNB-19 CNS = test system: SNB-19 CNS
# SNB-75 CNS = test system: SNB-75 CNS
# SR leukemia = test system: SR leukemia
# SW-620 colon = test system: SW-620 colon
# T-47D breast = test system: T-47D breast
# TK-10 renal = test system: TK-10 renal
# U251 CNS = test system: U251 CNS
# UACC-257 melanoma = test system: UACC-257 melanoma
# UACC-62 melanoma = test system: UACC-62 melanoma
# UO-31 renal = test system: UO-31 renal
smiles,measurement,setting,value
O=C1/C(=C/c2cccc([N+](=O)[O-])c2)COc2ccc(O)cc21,GI50,786-0 renal,1850 nM
same,TGI,786-0 renal,3830 nM
same,GI50,A498 renal,3350 nM
same,TGI,A498 renal,13400 nM
same,GI50,A549 NSCLC,4660 nM
same,TGI,A549 NSCLC,16800 nM
same,GI50,ACHN renal,1750 nM
same,TGI,ACHN renal,3210 nM
same,GI50,BT-549 breast,2190 nM
same,TGI,BT-549 breast,4460 nM
same,GI50,CAKI-1 renal,1780 nM
same,TGI,CAKI-1 renal,3580 nM
same,GI50,CCRF-CEM leukemia,408 nM
same,TGI,CCRF-CEM leukemia,1850 nM
same,GI50,COLO 205 colon,1580 nM
same,TGI,COLO 205 colon,3270 nM
same,GI50,DU-145 prostate,2000 nM
same,TGI,DU-145 prostate,4260 nM
same,GI50,EKVX NSCLC,3860 nM
same,TGI,EKVX NSCLC,13700 nM
same,GI50,HCC-2998 colon,1750 nM
same,TGI,HCC-2998 colon,3210 nM
same,GI50,HCT-116 colon,1190 nM
same,TGI,HCT-116 colon,2820 nM
same,GI50,HCT-15 colon,1700 nM
same,TGI,HCT-15 colon,3490 nM
same,GI50,HL-60(TB) leukemia,1690 nM
same,TGI,HL-60(TB) leukemia,4030 nM
same,GI50,HOP-62 NSCLC,3210 nM
same,TGI,HOP-62 NSCLC,12100 nM
same,GI50,HOP-92 NSCLC,2510 nM
same,TGI,HOP-92 NSCLC,7890 nM
same,GI50,HS 578T breast,3000 nM
same,TGI,HS 578T breast,9400 nM
same,GI50,HT29 colon,1920 nM
same,TGI,HT29 colon,4580 nM
same,GI50,IGROV1 ovarian,1730 nM
same,TGI,IGROV1 ovarian,3340 nM
same,GI50,K-562 leukemia,506 nM
same,TGI,K-562 leukemia,11800 nM
same,GI50,KM12 colon,1680 nM
same,TGI,KM12 colon,3320 nM
same,GI50,LOX IMVI melanoma,1490 nM
same,TGI,LOX IMVI melanoma,2920 nM
same,GI50,M14 melanoma,1720 nM
same,TGI,M14 melanoma,3540 nM
same,GI50,MALME-3M melanoma,2370 nM
same,TGI,MALME-3M melanoma,6750 nM
same,GI50,MDA-MB-231 breast,2070 nM
same,TGI,MDA-MB-231 breast,4750 nM
same,GI50,MDA-MB-435,1910 nM
same,TGI,MDA-MB-435,4050 nM
same,GI50,MOLT-4 leukemia,2050 nM
same,TGI,MOLT-4 leukemia,5830 nM
same,GI50,NCI-H226 lung,2190 nM
same,TGI,NCI-H226 lung,5230 nM
same,GI50,NCI-H23 lung,2020 nM
same,TGI,NCI-H23 lung,4640 nM
same,GI50,NCI-H460 lung,2690 nM
same,TGI,NCI-H460 lung,6650 nM
same,GI50,NCI-H522 lung,1470 nM
same,TGI,NCI-H522 lung,3020 nM
same,GI50,NCI/ADR-RES ovarian,2930 nM
same,TGI,NCI/ADR-RES ovarian,10800 nM
same,GI50,OVCAR-3 ovarian,1710 nM
same,TGI,OVCAR-3 ovarian,3130 nM
same,GI50,OVCAR-4 ovarian,3300 nM
same,TGI,OVCAR-4 ovarian,11100 nM
same,GI50,OVCAR-5 ovarian,2110 nM
same,TGI,OVCAR-5 ovarian,4760 nM
same,GI50,OVCAR-8 ovarian,2670 nM
same,TGI,OVCAR-8 ovarian,9520 nM
same,GI50,PC-3 prostate,2150 nM
same,TGI,PC-3 prostate,5450 nM
same,GI50,RPMI-8226 leukemia,236 nM
same,TGI,RPMI-8226 leukemia,604 nM
same,GI50,RXF 393 renal,1730 nM
same,TGI,RXF 393 renal,3280 nM
same,GI50,SF-268 CNS,2860 nM
same,TGI,SF-268 CNS,10300 nM
same,GI50,SF-295 CNS,6940 nM
same,TGI,SF-295 CNS,19800 nM
same,GI50,SF-539 CNS,1870 nM
same,TGI,SF-539 CNS,3730 nM
same,GI50,SK-MEL-2 melanoma,2100 nM
same,TGI,SK-MEL-2 melanoma,5300 nM
same,GI50,SK-MEL-28 melanoma,2020 nM
same,TGI,SK-MEL-28 melanoma,4240 nM
same,GI50,SK-MEL-5 melanoma,1800 nM
same,TGI,SK-MEL-5 melanoma,3370 nM
same,GI50,SK-OV-3 ovarian,4640 nM
same,TGI,SK-OV-3 ovarian,15900 nM
same,GI50,SN12C renal,1790 nM
same,TGI,SN12C renal,3470 nM
same,GI50,SNB-19 CNS,1960 nM
same,TGI,SNB-19 CNS,3970 nM
same,GI50,SNB-75 CNS,2630 nM
same,TGI,SNB-75 CNS,14900 nM
same,GI50,SR leukemia,278 nM
same,TGI,SR leukemia,1180 nM
same,GI50,SW-620 colon,521 nM
same,TGI,SW-620 colon,2080 nM
same,GI50,T-47D breast,2240 nM
same,TGI,T-47D breast,6300 nM
same,GI50,TK-10 renal,2770 nM
same,TGI,TK-10 renal,9110 nM
same,GI50,U251 CNS,1560 nM
same,TGI,U251 CNS,2900 nM
same,GI50,UACC-257 melanoma,2370 nM
same,TGI,UACC-257 melanoma,6660 nM
same,GI50,UACC-62 melanoma,1920 nM
same,TGI,UACC-62 melanoma,4030 nM
same,GI50,UO-31 renal,1510 nM
same,TGI,UO-31 renal,2930 nM
